Literature values in US11690800B2, “Non-irritating, non-blurring, photostable ophthalmic sunscreen composition” (A. EBBIE SOROUDI, M.D., M.S., A PROFESSIONAL MEDICAL …, priority 2014, dated 2023).

Experiments:
[1] = oil phase and water phase of a sunscreen
[2] = formulated into a dermatologic sunscreen

dissolution in oil or water phase [1]: dissolves poorly in both
skin penetration [2]: minimal skin penetration
Structure (SMILES): CC(C)(C)CC(C)(C)c1cc(Cc2cc(C(C)(C)CC(C)(C)C)cc(-n3nc4ccccc4n3)c2O)c(O)c(-n2nc3ccccc3n2)c1 [Bisoctrizole, 2,2′-methanediylbis[6-(2H-benzotriazol-2-yl)-4-(2,4,4-trimethylpentan-2-yl)phenol]]
